What is called IC50 is the concentration that inhibits the measured activity by half. What is called inhibition is how much of the control response was suppressed.

Series [1] concerns rats. Kind of series: intestine motility test (activated charcoal transit). The note with it: for intestinal transit in relation to RS group: product 30 minutes before charcoal, H1, H2 8.5 g/Kg, P+ (LW) 0.8 g/Kg, L 6.5 g/Kg, loperamide 2 mg/Kg p.o., read 20 minutes after charcoal. It is filed as in vivo. As to the method:
Intestine motility was evaluated in rats as in Example 7. The groups were coincident (n=7) except of the omission of R group and that only P^+ (LW 0.8 g/Kg) was tested. The control group included rats treated with loperamide (Lop) at a dose of 2 mg/Kg, and rats treated with the vehicle (water) and with non-hydrolysed cow milk (L group). Loperamide is an anti-diarrhoeic drug that delays intestinal transit and it acts as a positive control in this experiment.
After 30 minutes of the administration of the products under study (P+, L, Lop, H1, H2, water) intestine transit was determined by administering 1 ml of a suspension at 1 % w/v of activated charcoal (Sigma-Aldrich®) in arabic gum (Acofar®, 5 %).
20 minutes later, animals were sacrificed by exsanguination and small intestine was extracted (from pilor to ileocecal). Small intestine was longitudinally disposed over a clean surface. Intestinal distance of charcoal was measured as well as the total intestine length. Results for each animal were expressed as distance of charcoal in relation to intestine length, in percentage form.
Statistical analysis was performed by PASW®Statistics 18 software. Global comparative analysis between groups was performed with Kruskal-Wallis test and further with the non-parametric U test of Mann-Whitney. It was stablished as meaningful level a p value of p<0.05.

Series [2] deals with T1, recombinant human neprilysin (rhNeprilysin) (Homo sapiens, UniProt P08473).
T1 construct: purchased R&D Systems, Inc
T1 sequence (P08473 whole entry): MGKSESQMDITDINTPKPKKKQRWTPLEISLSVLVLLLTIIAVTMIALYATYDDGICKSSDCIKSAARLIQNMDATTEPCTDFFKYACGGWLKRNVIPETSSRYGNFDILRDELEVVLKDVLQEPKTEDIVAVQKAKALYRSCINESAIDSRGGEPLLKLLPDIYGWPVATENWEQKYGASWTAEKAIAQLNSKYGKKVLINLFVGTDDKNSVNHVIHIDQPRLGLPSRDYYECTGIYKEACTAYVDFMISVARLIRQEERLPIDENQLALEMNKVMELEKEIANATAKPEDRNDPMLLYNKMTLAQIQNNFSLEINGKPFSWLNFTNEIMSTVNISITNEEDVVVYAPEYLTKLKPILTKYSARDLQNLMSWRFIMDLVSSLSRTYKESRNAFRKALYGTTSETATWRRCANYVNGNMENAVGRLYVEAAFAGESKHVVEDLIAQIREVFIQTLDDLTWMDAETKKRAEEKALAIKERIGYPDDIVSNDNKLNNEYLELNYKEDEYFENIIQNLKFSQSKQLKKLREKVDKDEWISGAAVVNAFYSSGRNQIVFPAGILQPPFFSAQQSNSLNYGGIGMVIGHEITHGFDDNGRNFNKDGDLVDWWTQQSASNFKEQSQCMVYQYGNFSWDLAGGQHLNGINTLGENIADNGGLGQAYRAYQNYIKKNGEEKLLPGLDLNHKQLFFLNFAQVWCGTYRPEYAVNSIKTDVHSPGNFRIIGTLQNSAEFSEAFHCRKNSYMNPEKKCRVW
Kind of series: neprilysin inhibition, fluorogenic enzymatic (FRET) assay. It is filed as biochemical. The note with it: for IC50: pure substance, 37 °C. As for the experimental part: All samples are assayed in triplicate.

Series [3] concerns female Wistar rats. Kind of series: castor oil induced acute diarrhoea in rats. It is filed as in vivo. The note with it: p.o. 1 h before castor oil, H1, H2 8.5 g/Kg. As for the experimental part: The effect of the hydrolysates of the invention was tested in a model of induced acute diarrhoea. For this test, female Wistar rats were used (8 weeks old). Animals were provided with 7 weeks by Harlan (Barcelona, Spain) and they rested in the Animal Experimental Service of Facultad de […] de Barcelona (UB) under controlled temperature and humidity conditions with a light:dark cycle of 12 h:12 h with water and food ad libitum. The assay has been conducted under institutional guidelines for animal experimentation established by the Ethical Commitment of Animal Experimentation in the Universidad de Barcelona (CEEA-UB). […] Haematocrit was also determined as basal value before inducing diarrhoea. […] Although the weight was reduced during the assay, the loss was detected in all groups, and it is hypothesized due to the starving period. No differences among groups were detected in the haematocrit. […] The following variables were determined: number of defecations, type (consistency, colour, form, presence or absence of mucus), punctuation (0-4 according to a diarrhoea index), presence or absence of diarrhoea. There were also determined the diarrhoea index (ID), diarrhoea incidence, the percentage of diarrhoeic defecations, as well as the severity of diarrhoeic process. […] The percentage of diarrhoeic defecations (ID≥2) was also determined for each group. […]

For series [4] the following is noted: cited from earlier work.
The target in series [5] is Angiotensin Converting Enzymes (ACE). The following applies: ACE inhibition; cited from earlier work.
Series [6] concerns the target recombinant human neprilysin (human, UniProt P08473 53-750). Kind of series: cell-based or functional assay.

Values joined by “and” are separate entries in the source; they are usually repeats but may differ in a detail not shown here. Equal values may be shown once. No end group written: not given here.

Chain of recombinant human neprilysin (P08473 53-750 limits assumed): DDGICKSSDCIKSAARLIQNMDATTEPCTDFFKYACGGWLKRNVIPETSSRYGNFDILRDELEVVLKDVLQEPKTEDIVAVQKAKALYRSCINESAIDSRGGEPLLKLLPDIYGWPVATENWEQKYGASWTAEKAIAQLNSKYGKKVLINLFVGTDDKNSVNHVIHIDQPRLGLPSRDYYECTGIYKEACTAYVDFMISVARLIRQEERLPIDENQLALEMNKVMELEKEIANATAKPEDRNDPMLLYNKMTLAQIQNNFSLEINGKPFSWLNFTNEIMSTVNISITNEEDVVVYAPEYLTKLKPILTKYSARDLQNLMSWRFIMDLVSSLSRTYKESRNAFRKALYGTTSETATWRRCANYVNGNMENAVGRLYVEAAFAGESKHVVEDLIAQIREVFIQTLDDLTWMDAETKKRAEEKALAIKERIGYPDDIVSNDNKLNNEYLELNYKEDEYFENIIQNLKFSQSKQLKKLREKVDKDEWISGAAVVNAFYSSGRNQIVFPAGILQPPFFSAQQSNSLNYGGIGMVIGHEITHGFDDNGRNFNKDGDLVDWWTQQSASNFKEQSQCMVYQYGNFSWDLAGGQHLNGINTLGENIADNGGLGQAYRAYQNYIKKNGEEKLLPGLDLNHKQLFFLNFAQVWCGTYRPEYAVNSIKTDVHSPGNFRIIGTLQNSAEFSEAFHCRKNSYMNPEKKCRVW

Regarding `CC(C)C[C@H](N)C(=O)N[C@@H](Cc1c[nH]c2ccccc12)C(=O)O` [LW], the “intestinal transit in relation to RS group” value in series [1] is reported as “does not modify intestinal transit”. The IC50 in series [2] and in series [2] (dilutions in deionized water) was 84.8 µM each time.
Take `CN(C)C(=O)C(CCN1CCC(O)(c2ccc(Cl)cc2)CC1)(c1ccccc1)c1ccccc1` [loperamide]: the “intestinal transit: distance of charcoal in relation to total small intestine length (D/L)” value in series [1] (2 mg/Kg p.o., 30 minutes before charcoal, p<0.01 vs RS) was determined as 37.8 ± 3.49%. In series [1] (2 mg/Kg p.o., versus RS group, p<0.01), the “inhibition of intestinal transit” value worked out at 37%. Moreover, the “intestinal transit in relation to RS group” value in series [1] is given as “delayed intestinal transit”.
With `CC(=O)SCC(Cc1ccccc1)C(=O)NCC(=O)OCc1ccccc1` (centres unmarked) [racecadotril], the “severity of diarrhoeic process (AUC of the diarrhoea index)” value in series [3] (LW 0.8 g/Kg, racecadotril 40 mg/Kg, L 6.5 g/Kg, 0-3 h and 0-8 h PI (FIG. 8), versus RD group) is “milder severity of diarrhoeic process than RD group”. The “percentage of diarrhoeic defecations (ID≥2) in relation to the total of defecations” value in series [3] (R 40 mg/Kg, 0-3 h and 0-8 h PI (FIG. 9)) is “lower in both studied period”. The water solubility result in series [4] was “poor water solubility”.
For IPP, in series [5], the IC50 is 5 to 9 µM.
With VLGPVRGPFP [SEQ ID NO: 1], the inhibition at 1260 µM in series [2] (peptide concentration 1.26 x10^-3 M, 40 minutes at 37 °C) was determined as 64.8%. For the same molecule, in series [2] (peptide concentration 1.26 x10^-4 M, 40 minutes at 37 °C), the inhibition at 126 µM was 13.2%. For the same molecule, the inhibition at 12.6 µM in series [2] (peptide concentration 1.26 x10^-5 M, 40 minutes at 37 °C) came out at 1.49%. The inhibition at 315 µM in series [2] (peptide concentration 3.15 x10^-4 M, 40 minutes at 37 °C) amounted to 29.5%. Further, the inhibition at 630 µM in series [2] (peptide concentration 6.30 x10^-4 M, 40 minutes at 37 °C) stood at 46.6%. In series [2] (peptide concentration 6.30 x10^-5 M, 40 minutes at 37 °C), the inhibition at 63 µM turned out to be 7.37%. Further, the inhibition at 90 µM in series [2] (peptide concentration 9.00 x10^-5 M, 40 minutes at 37 °C) came to 9.41%.
Take VPP: in series [5], the IC50 was 5 to 9 µM.

B1: peptide of SEQ ID NO: 1 (VLGPVRGPFP) (peptide)
peptide: VLGPVRGPFP
Turning to B1, in series [6], the “IC50 of neprilysin inhibition (fluorogenic enzymatic assay)” value amounted to 713 µM.

B2: peptide LW (dipeptide of formula (I) X1W, wherein X1 is leucine) (peptide)
peptide: LW
For B2, the “IC50 of neprilysin inhibition (fluorogenic enzymatic assay, FRET substrate Mca-…[Dnp]-OH)” value in series [6] is 0.0269 mg/ml and 84.8 µM.

Values taken from patent EP3212211B1, “MILK PROTEIN HYDROLYSATE FOR USE IN THE TREATMENT OF DIARRHOEA” (Laboratorios Ordesa, S.l., priority 2014, dated 2016).
